Read-outs that look alike come from different tables or passages of the source.
What was measured:
Assay type in all cases: cell-based
LNCaP = assay: SRB colorimetric cell growth inhibition assay, LNCaP; details: Homo sapiens, LNCaP; for GI50: GI=growth inhibition, read-out: GI50 LN-caP; for IC (TGI): read-out: TGI LN-caP
Procedure, shortened: (§1)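 Cancer cells grown in vitro were continuously treated with compound. Cell mass was then determined by SRB staining and expressed as growth inhibition.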

PANC-1 = assay: SRB colorimetric cell growth inhibition assay, PANC-1; details: Homo sapiens; for GI50: GI=growth inhibition, read-out: GI50 PANC-1; for IC (TGI): read-out: TGI PANC-1
Procedure, shortened: as §1

A-549 = assay: SRB colorimetric cell growth inhibition assay, A-549; details: Homo sapiens; for GI50: GI=growth inhibition, read-out: GI50 A-549; for IC (TGI): read-out: TGI A-549
Procedure, shortened: as §1

IGROV-ET = assay: SRB colorimetric cell growth inhibition assay, IGROV-ET (ET-743 resistant); details: Homo sapiens; for GI50: GI=growth inhibition, read-out: GI50 IGROV-ET; for IC (TGI): read-out: TGI IGROV-ET
Procedure, shortened: as §1

HeLa-APL = assay: SRB colorimetric cell growth inhibition assay, HeLa-APL (aplidine resistant); details: Homo sapiens; for GI50: read-out: GI50 HELA-APL; for IC (TGI): read-out: TGI HELA-APL
Procedure, shortened: as §1

K-562 = assay: SRB colorimetric cell growth inhibition assay, K-562; details: Homo sapiens; for GI50: GI=growth inhibition, read-out: GI50 K-562; for IC (TGI): read-out: TGI K-562
Procedure, shortened: as §1

HT-29 = assay: SRB colorimetric cell growth inhibition assay, HT-29; details: Homo sapiens; for GI50: GI=growth inhibition, read-out: GI50 HT-29; for IC (TGI): read-out: TGI HT-29
Procedure, shortened: as §1

LoVo = assay: SRB colorimetric cell growth inhibition assay, LoVo; details: Homo sapiens, LoVo; for GI50: GI=growth inhibition, read-out: GI50 LOVO; for IC (TGI): read-out: TGI LOVO
Procedure, shortened: as §1

SK-BR-3 = assay: SRB colorimetric cell growth inhibition assay, SK-BR-3; details: Homo sapiens; for GI50: GI=growth inhibition, read-out: GI50 SK-BR-3; for IC (TGI): read-out: TGI SK-BR-3
Procedure, shortened: as §1

LoVo-Dox = assay: SRB colorimetric cell growth inhibition assay, LoVo-Dox (MDR); details: Homo sapiens; for GI50: GI=growth inhibition, read-out: GI50 LOVO-DOX; for IC (TGI): read-out: TGI LOVO-DOX
Procedure, shortened: as §1

IGROV = assay: SRB colorimetric cell growth inhibition assay, IGROV; details: Homo sapiens, IGROV; for GI50: GI=growth inhibition, read-out: GI50 IGROV; for IC (TGI): read-out: TGI IGROV
Procedure, shortened: as §1

HeLa = assay: SRB colorimetric cell growth inhibition assay, HeLa; details: Homo sapiens, HeLa; for GI50: GI=growth inhibition, read-out: GI50 HELA; for IC (TGI): read-out: TGI HELA
Procedure, shortened: as §1

DU-145 = assay: SRB colorimetric cell growth inhibition assay, DU-145; details: Homo sapiens; for GI50: GI=growth inhibition, read-out: GI50 DU-145; for IC (TGI): read-out: TGI DU-145
Procedure, shortened: as §1

SK-MEL-28 = assay: SRB colorimetric cell growth inhibition assay, SK-MEL-28; details: Homo sapiens; for GI50: GI=growth inhibition, read-out: GI50 MEL-28; for IC (TGI): read-out: TGI MEL-28
Procedure, shortened: as §1

[1] = total growth inhibition (cytostatic effect)
[2] = TGI=total growth inhibition (cytostatic effect)

COc1cc2ccn3c(c(-c4ccc(OC(=O)[C@@H](NC(=O)OC(C)(C)C)C(C)C)c(OC)c4)c4c5cc(OC)c(OC(=O)[C@@H](NC(=O)OC(C)(C)C)C(C)C)cc5oc(=O)c43)c2cc1OC [Compound 15]
GI50 (LNCaP; LN-caP): 0.056 µM | CC50 (LNCaP; LN-caP, cell killing (cytotoxic effect), read-out: LC50 LN-caP): 3.93 µM | IC (TGI) (LNCaP; LN-caP, total growth inhibition (cytostatic effect)): 0.609 µM | GI50 (PANC-1; PANC-1, PANC-1): 1.54 µM | CC50 (PANC-1; PANC-1, PANC-1, cell killing (cytotoxic effect), read-out: LC50 PANC-1): 11 µM | IC (TGI) (PANC-1; PANC-1, PANC-1, total growth inhibition (cytostatic effect)): 5.26 µM | GI50 (A-549; A549, A-549): 0.0541 µM | CC50 (A-549; A549, A-549, cell killing (cytotoxic effect), read-out: LC50 A-549): 11 µM | IC (TGI) (A-549; A549, A-549, total growth inhibition (cytostatic effect)): 1.46 µM | GI50 (IGROV-ET; IGROV-ET): 6.87 µM | CC50 (IGROV-ET; IGROV-ET, cell killing (cytotoxic effect), read-out: LC50 IGROV-ET): 11 µM | IC (TGI) (IGROV-ET; IGROV-ET, total growth inhibition (cytostatic effect)): 11 µM | GI50 (HeLa-APL; HELA-APL, GI=growth inhibition): 2.43 µM | CC50 (HeLa-APL; HELA-APL, cell killing (cytotoxic effect), read-out: LC50 HELA-APL): 11 µM | IC (TGI) (HeLa-APL; HELA-APL, total growth inhibition (cytostatic effect)): 5.53 µM | GI50 (K-562; K562, K-562): 1.6 µM | CC50 (K-562; K562, K-562, cell killing (cytotoxic effect), read-out: LC50 K-562): 9.57 µM | IC (TGI) (K-562; K562, K-562, total growth inhibition (cytostatic effect)): 3.91 µM | GI50 (HT-29; HT-29, HT-29): 0.0473 µM | CC50 (HT-29; HT-29, HT-29, cell killing (cytotoxic effect), read-out: LC50 HT-29): 9.17 µM | IC (TGI) (HT-29; HT-29, HT-29, total growth inhibition (cytostatic effect)): 0.111 µM | GI50 (LoVo): 1.68 µM | CC50 (LoVo; cell killing (cytotoxic effect), read-out: LC50 LOVO): 11 µM | IC (TGI) (LoVo; [1]): 4.96 µM | GI50 (SK-BR-3; SK-BR-3, SK-BR-3): 0.0561 µM | CC50 (SK-BR-3; SK-BR-3, SK-BR-3, cell killing (cytotoxic effect), read-out: LC50 SK-BR-3): 5.84 µM | IC (TGI) (SK-BR-3; SK-BR-3, SK-BR-3, total growth inhibition (cytostatic effect)): 0.635 µM | GI50 (LoVo-Dox; LOVO-DOX): 11 µM | CC50 (LoVo-Dox; LOVO-DOX, cell killing (cytotoxic effect), read-out: LC50 LOVO-DOX): 11 µM | IC (TGI) (LoVo-Dox; LOVO-DOX, total growth inhibition (cytostatic effect)): 11 µM | GI50 (IGROV): 0.0862 µM | CC50 (IGROV; cell killing (cytotoxic effect), read-out: LC50 IGROV): 9.76 µM | IC (TGI) (IGROV; [1]): 2.03 µM | GI50 (HeLa): 0.0579 µM | CC50 (HeLa; cell killing (cytotoxic effect), read-out: LC50 HELA): 7.81 µM | IC (TGI) (HeLa; [1]): 1.41 µM | GI50 (DU-145; DU-145, DU-145): 0.0685 µM | CC50 (DU-145; DU-145, DU-145, cell killing (cytotoxic effect), read-out: LC50 DU-145): 11 µM | IC (TGI) (DU-145; DU-145, DU-145, total growth inhibition (cytostatic effect)): 3.08 µM | GI50 (SK-MEL-28; SK-MEL-28, MEL-28): 0.0482 µM | CC50 (SK-MEL-28; SK-MEL-28, MEL-28, cell killing (cytotoxic effect), read-out: LC50 MEL-28): 7.24 µM | IC (TGI) (SK-MEL-28; SK-MEL-28, MEL-28, total growth inhibition (cytostatic effect)): 1.64 µM

COc1cc(-c2c3n(c4c(=O)oc5cc(OC(=O)[C@H](CO)NC(=O)OC(C)(C)C)c(OC)cc5c24)CCc2c-3cc(OC)c(OC)c2OC(=O)[C@H](CO)NC(=O)OC(C)(C)C)ccc1OC(=O)[C@H](CO)NC(=O)OC(C)(C)C [Compound 60]
GI50 (LNCaP; LN-caP): 0.55 µM | IC (TGI) (LNCaP; LN-caP, TGI=total growth inhibition (cytostatic effect)): 1.79 µM | CC50 (LNCaP; read-out: LC50 LN-caP, LN-caP, LC=cell killing (cytotoxic effect)): 5.25 µM | GI50 (PANC-1; PANC-1, PANC-1): 0.747 µM | IC (TGI) (PANC-1; PANC-1, PANC-1, TGI=total growth inhibition (cytostatic effect)): 4.4 µM | CC50 (PANC-1; PANC-1, read-out: LC50 PANC-1, PANC-1, LC=cell killing (cytotoxic effect)): 9.15 µM | GI50 (A-549; A549, A-549): 1.62 µM | IC (TGI) (A-549; A549, A-549, TGI=total growth inhibition (cytostatic effect)): 4.63 µM | CC50 (A-549; A549, read-out: LC50 A-549, A-549, LC=cell killing (cytotoxic effect)): 9.15 µM | GI50 (IGROV-ET; IGROV-ET): 2.56 µM | IC (TGI) (IGROV-ET; IGROV-ET, TGI=total growth inhibition (cytostatic effect)): 6.16 µM | CC50 (IGROV-ET; read-out: LC50 IGROV-ET, IGROV-ET, LC=cell killing (cytotoxic effect)): 9.15 µM | GI50 (HeLa-APL): 3.49 µM | CC50 (HeLa-APL; read-out: LC50 HELA-APL, HELA-APL, LC=cell killing (cytotoxic effect)): 9.15 µM | IC (TGI) (HeLa-APL): 9.15 µM | GI50 (K-562; K562, K-562): 0.697 µM | IC (TGI) (K-562; K562, K-562, TGI=total growth inhibition (cytostatic effect)): 2.19 µM | CC50 (K-562; K562, read-out: LC50 K-562, K-562, LC=cell killing (cytotoxic effect)): 6.87 µM | GI50 (HT-29; HT-29, HT-29): 2.42 µM | IC (TGI) (HT-29; HT-29, HT-29, TGI=total growth inhibition (cytostatic effect)): 5.88 µM | CC50 (HT-29; HT-29, read-out: LC50 HT-29, HT-29, LC=cell killing (cytotoxic effect)): 9.15 µM | CC50 (LoVo; read-out: LC50 LOVO, LOVO, LC=cell killing (cytotoxic effect)): 7.94 µM | GI50 (LoVo): 1.61 µM | IC (TGI) (LoVo; [2]): 3.58 µM | GI50 (SK-BR-3; SK-BR-3, SK-BR-3): 0.491 µM | IC (TGI) (SK-BR-3; SK-BR-3, SK-BR-3, TGI=total growth inhibition (cytostatic effect)): 1.64 µM | CC50 (SK-BR-3; SK-BR-3, read-out: LC50 SK-BR-3, SK-BR-3, LC=cell killing (cytotoxic effect)): 8.58 µM | GI50 (LoVo-Dox; LOVO-DOX): 2.82 µM | CC50 (LoVo-Dox; read-out: LC50 LOVO-DOX, LOVO-DOX, LC=cell killing (cytotoxic effect)): 9.15 µM | IC (TGI) (LoVo-Dox; LOVO-DOX, TGI=total growth inhibition (cytostatic effect)): 9.15 µM | CC50 (IGROV; read-out: LC50 IGROV, IGROV, LC=cell killing (cytotoxic effect)): 9.15 µM | GI50 (IGROV): 0.682 µM | IC (TGI) (IGROV; [2]): 3.29 µM | CC50 (HeLa; read-out: LC50 HELA, HELA, LC=cell killing (cytotoxic effect)): 6.13 µM | IC (TGI) (HeLa): 2.51 µM | GI50 (HeLa): 1.02 µM | GI50 (DU-145; DU-145, DU-145): 1.18 µM | IC (TGI) (DU-145; DU-145, DU-145, TGI=total growth inhibition (cytostatic effect)): 2.65 µM | CC50 (DU-145; DU-145, read-out: LC50 DU-145, DU-145, LC=cell killing (cytotoxic effect)): 5.97 µM | GI50 (SK-MEL-28; SK-MEL-28, MEL-28): 1.17 µM | IC (TGI) (SK-MEL-28; SK-MEL-28, MEL-28, TGI=total growth inhibition (cytostatic effect)): 4.14 µM | CC50 (SK-MEL-28; SK-MEL-28, read-out: LC50 MEL-28, MEL-28, LC=cell killing (cytotoxic effect)): 9.15 µM
